Data reported in ChEMBL document CHEMBL4619792, “Amidate Prodrugs of O-2-Alkylated Pyrimidine Acyclic Nucleosides Display Potent Anti-Herpesvirus Activity” (ACS Med Chem Lett, 2020).

Experiments:
Human alphaherpesvirus 3 [1] = experiment: Antiviral activity against thymidine kinase deficient Varicella zoster virus 07-1 infected in human HEL cells assessed as reduction in plaque formation measured after 5 days; type: functional, organism-based; settings: Human alphaherpesvirus 3, 07-1, HEL, 120 h
Cytomegalovirus [2] = experiment: Antiviral activity against Cytomegalovirus Davis infected in human HEL cells assessed as reduction in virus-induced cytopathogenicity measured after 6 to 7 days; type: functional, organism-based; settings: Human betaherpesvirus 5, Davis
[3] = Cytotoxicity against human HEL cells assessed as minimum cytotoxic concentration for change in cellular morphology incubated for 3 days by microscopic analysis; type: cell-based
Human alphaherpesvirus 3 [4] = experiment: Antiviral activity against thymidine kinase positive Varicella zoster virus OKA infected in human HEL cells assessed as reduction in plaque formation measured after 5 days; type: functional, organism-based; settings: Human alphaherpesvirus 3, OKA, 120 h
Cytomegalovirus [5] = experiment: Antiviral activity against Cytomegalovirus AD169 infected in human HEL cells assessed as reduction in virus-induced cytopathogenicity measured after 6 to 7 days; type: functional, organism-based; settings: Human betaherpesvirus 5, AD169, HEL
[6] = Cytotoxicity against human HEL cells assessed as reduction in cell proliferation incubated for 3 days by Coulter counter method; type: cell-based
Hepatitis B virus = experiment: Antiviral activity against Hepatitis B virus ayw1 infected in human HepG2.2.15 cells assessed as reduction in virus DNA replication measured after 6 days by qRT-PCR analysis; type: functional, organism-based; settings: ayw1, HepG2 2.2.15, 144 h
[7] = Selectivity index, ratio of CC50 for human HEL cells to EC50 for antiviral activity against Cytomegalovirus Davis infected in human HEL cells; type: toxicity, cell-based; settings: read-out: Ratio CC50/EC50
[8] = Selectivity index, ratio of CC50 for human HEL cells to EC50 for antiviral activity against thymidine kinase deficient Varicella zoster virus 07-1 infected in human HEL cells; type: toxicity, cell-based; settings: read-out: Ratio CC50/EC50
[9] = Selectivity index, ratio of CC50 for human HEL cells to EC50 for antiviral activity against thymidine kinase positive Varicella zoster virus OKA infected in human HEL cells; type: toxicity, cell-based; settings: read-out: Ratio CC50/EC50
[10] = Selectivity index, ratio of CC50 for human HEL cells to EC50 for antiviral activity against Cytomegalovirus AD169 infected in human HEL cells; type: toxicity, cell-based; settings: read-out: Ratio CC50/EC50
[11] = system: Human immunodeficiency virus; experiment: Antiviral activity against HIV infected in human CEM cells assessed as inhibition of virus induced cytopathicity incubated for 4 days by microscopic analysis; type: functional, organism-based; settings: ccrf-cem
[12] = system: Moloney murine sarcoma virus; experiment: Antiviral activity against Moloney murine sarcoma virus infected in murine C3H/3T3 embryo fibroblasts assessed as inhibition of virus-induced transformation incubated for 6 days by microscopic analysis; type: functional, organism-based

EC50 [11] | Structure (SMILES) | EC50 (Human alphaherpesvirus 3 [1]) | EC50 (Cytomegalovirus [2]) | MCC at 72 h [3] | EC50 (Human alphaherpesvirus 3 [4]) | EC50 (Cytomegalovirus [5]) | CC50 at 72 h [6] | EC50 (Hepatitis B virus) | selectivity ratio [7] | selectivity ratio [8] | selectivity ratio [9] | selectivity ratio [10] | EC50 [12]
 | CCCCCOC(=O)[C@@H](NP(=O)(CO[C@H](CF)COc1ncc(F)c(N)n1)Oc1ccccc1)C(C)C (mixture of isomers) | > 100 µM | > 100 µM | > 100 µM | > 100 µM | > 100 µM |  |  |  |  |  |  | 
 | Nc1ccnc(OC[C@H](CF)OCP(=O)(O)O)n1 | 25.3 µM | 0.8 µM | > 100 µM | 3.79 µM | 2.36 µM | > 100 µM |  |  |  |  |  | 
 | CCCCCOC(=O)[C@@H](NP(=O)(CO[C@@H](CF)COc1ncc(F)c(N)n1)Oc1ccccc1)C(C)C (mixture of isomers) | 2.94 µM | 4.7 µM | > 100 µM | 6.73 µM | 11.2 µM | > 100 µM | 2.1 to 8.71 µM |  |  |  |  | 
 | CCCCOC(=O)[C@@H](NP(=O)(COC(C)COc1nccc(N)n1)Oc1ccccc1)C(C)C (some centres undefined) | > 100 µM | > 100 µM | > 100 µM | > 100 µM | > 100 µM |  |  |  |  |  |  | 
 | Nc1nc2c(ncn2COCCO)c(=O)[nH]1 [ACYCLOVIR] |  |  | > 444 µM |  |  | > 444 µM |  |  |  |  |  | 
 | CCCCCOC(=O)[C@@H](NP1(=O)CO[C@H](COc2ncc(F)c(N)n2)CO1)C(C)C (mixture of isomers) | > 100 µM | > 100 µM | > 100 µM | > 100 µM | > 100 µM |  |  |  |  |  |  | 
 | CCCCCOC(=O)C[C@H](NP(=O)(CO[C@@H](CF)COc1nccc(N)n1)Oc1ccccc1)C(=O)OCCCCC (mixture of isomers) | 0.098 µM | 0.094 µM | > 100 µM | 0.36 µM | 0.54 µM | 51.8 µM | 2.1 to 8.71 µM | 96 to 551 | 96 to 551 | 96 to 551 | 96 to 551 | 
 | CCCCCOC(=O)[C@@H](NP(=O)(CO[C@H](C)COc1ncc(F)c(N)n1)Oc1ccccc1)C(C)C (mixture of isomers) | > 100 µM | > 100 µM | > 100 µM | > 100 µM | > 100 µM |  |  |  |  |  |  | 
 | CCCCCOC(=O)[C@@H](NP1(=O)CO[C@@H](COc2ncc(F)c(N)n2)CO1)C(C)C (mixture of isomers) | > 100 µM | > 100 µM | > 100 µM | > 100 µM | > 100 µM |  |  |  |  |  |  | 
 | CCCCCOC(=O)[C@@H](NP1(=O)CO[C@@H](COc2nccc(N)n2)CO1)C(C)C (mixture of isomers) | > 100 µM | > 100 µM | > 100 µM | > 100 µM | > 100 µM |  |  |  |  |  |  | 
 | CCCCCOC(=O)[C@@H](NP(=O)(CO[C@H](C)COc1nccc(N)n1)Oc1ccccc1)C(C)C (mixture of isomers) | > 100 µM | > 100 µM | > 100 µM | > 100 µM | > 100 µM |  |  |  |  |  |  | 
 | CCCCCOC(=O)[C@@H](NP(=O)(CO[C@@H](C)COc1nccc(N)n1)Oc1ccccc1)C(C)C (mixture of isomers) | > 100 µM | > 100 µM | > 100 µM | > 100 µM | > 100 µM |  |  |  |  |  |  | 
 | Nc1nc2c(ncn2COC(CO)CO)c(=O)[nH]1 [GANCICLOVIR] |  | 4.44 µM | > 394 µM |  | 13 µM | > 394 µM |  |  |  |  |  | 
 | CCCCCOC(=O)[C@@H](NP(=O)(CO[C@@H](CF)COc1nccc(N)n1)Oc1ccccc1)C(C)C (mixture of isomers) | 0.18 µM | 0.097 µM | > 100 µM | 0.36 µM | 0.26 µM | 79.3 µM | 2.1 to 8.71 µM | 220 to 818 | 220 to 818 | 220 to 818 | 220 to 818 | 
160 to 430 nM | Cc1c(N)nc(N)nc1OCCOCP(=O)(O)O |  |  |  |  |  |  |  |  |  |  |  | 160 to 430 nM
 | O=c1[nH]c(=O)n([C@H]2C[C@H](O)[C@@H](CO)O2)cc1/C=C/Br [BRIVUDINE] | 0.18 µM |  | > 300 µM | 0.089 µM |  | > 300 µM |  |  |  |  |  | 
 | Nc1ccnc(OC[C@@H](CF)OCP(=O)(O)O)n1 (mixture of isomers) | > 100 µM | > 100 µM | > 100 µM | > 100 µM | > 100 µM | > 100 µM |  |  |  |  |  | 
 | CCCCCOC(=O)[C@@H](NP(=O)(CO[C@H](CF)COc1nccc(N)n1)Oc1ccccc1)C(C)C (mixture of isomers) | 35.9 µM | 7.61 µM | > 100 µM | 38.6 µM | > 100 µM |  |  |  |  |  |  | 
 | CCCCCOC(=O)[C@@H](NP(=O)(CO[C@@H](C)COc1ncc(F)c(N)n1)Oc1ccccc1)C(C)C (mixture of isomers) | > 100 µM | > 100 µM | > 100 µM | > 100 µM | > 100 µM |  |  |  |  |  |  | 
 | CCCCCOC(=O)[C@@H](NP1(=O)CO[C@H](COc2nccc(N)n2)CO1)C(C)C (mixture of isomers) | 35.7 µM | 4.76 µM | > 100 µM | 53.6 µM | 14 µM | > 100 µM |  |  |  |  |  | 
 | Nc1ccn(C[C@@H](CO)OCP(=O)(O)O)c(=O)n1 [CIDOFOVIR] |  | 0.94 µM | > 317 µM |  | 1.74 µM | > 317 µM |  |  |  |  |  | 
 | CCCCCOC(=O)C[C@H](NP(=O)(CO[C@H](CF)COc1nccc(N)n1)Oc1ccccc1)C(=O)OCCCCC (mixture of isomers) | 24.7 µM | 48.2 µM | > 100 µM | 38.2 µM | 62.8 µM | > 100 µM |  |  |  |  |  | 
